Source: PMC12461339, “Benzoylselenoureas: A Novel Dual-Action Inhibitor Targeting Fungal Growth and Urease Activity in Cryptococcus neoformans” (ACS Omega, 2025)
≈ marks a conversion by molar mass, not a printed value. Where “and” joins values, the source holds several entries; their conditions need not be identical. Equal values may be shown once. Read-outs that look alike come from different tables or passages of the source.

Columns and labels:
[1] = system: C. neoformans H99; experiment: Minimum fungicidal concentration by subculturing after MIC reading; type: cell-based; details: Cryptococcus neoformans
Protocol: After MIC readings, the MFC values were determined by subculturing, at 35 °C for 48 h, of all concentrations that inhibited the fungal growth; and then MFC was defined as the lowest concentration of the compound capable of reducing ≥99% viability of the initial fungal inoculum. ,

[2] = molecular target: T1, C. neoformans urease (Cryptococcus neoformans, UniProt O13465); experiment: Urease activity in crude protein extract, indophenol method; type: biochemical; details: ureIC50, BSU series
T1 construct: endogenous in cells; host or cells: Cryptococcus neoformans H99, lysed by sonication; dialysed and lyophilised soluble fraction (total protein)
T1 sequence (O13465 whole entry): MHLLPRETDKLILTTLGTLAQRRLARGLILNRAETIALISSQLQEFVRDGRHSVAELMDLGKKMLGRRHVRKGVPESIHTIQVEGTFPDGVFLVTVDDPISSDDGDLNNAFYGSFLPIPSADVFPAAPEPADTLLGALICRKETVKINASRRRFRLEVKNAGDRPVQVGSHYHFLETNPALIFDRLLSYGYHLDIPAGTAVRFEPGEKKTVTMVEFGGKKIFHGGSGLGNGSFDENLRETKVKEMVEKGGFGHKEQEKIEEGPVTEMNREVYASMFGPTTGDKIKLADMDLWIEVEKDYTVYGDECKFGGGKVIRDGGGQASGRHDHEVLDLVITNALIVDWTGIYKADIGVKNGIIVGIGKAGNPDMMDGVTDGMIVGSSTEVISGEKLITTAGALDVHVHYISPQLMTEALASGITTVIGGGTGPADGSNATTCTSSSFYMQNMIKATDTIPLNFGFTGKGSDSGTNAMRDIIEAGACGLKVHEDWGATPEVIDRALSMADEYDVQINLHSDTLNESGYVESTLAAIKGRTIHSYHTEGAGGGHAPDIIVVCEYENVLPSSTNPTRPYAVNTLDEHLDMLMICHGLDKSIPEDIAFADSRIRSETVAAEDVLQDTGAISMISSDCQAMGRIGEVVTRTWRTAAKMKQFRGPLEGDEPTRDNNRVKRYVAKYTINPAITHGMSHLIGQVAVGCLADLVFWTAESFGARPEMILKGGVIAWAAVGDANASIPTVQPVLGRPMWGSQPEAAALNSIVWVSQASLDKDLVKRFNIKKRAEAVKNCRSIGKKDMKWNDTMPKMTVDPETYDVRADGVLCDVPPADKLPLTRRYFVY
Protocol: C. neoformans H99 yeasts were cultivated in 100 mL of Christensen broth for 72 h at 35 °C by shaking at 200 rpm for the obtention of urease as previously described. Briefly, the yeasts were ruptured using a lysis buffer (40 mM Tris-HCl, 20 mM dithiothreitol, 4% Triton X-100, 1 mM ethylenediaminetetraacetic acid, 2 mM phenylmethylsulfonyl fluoride, protease inhibitor cocktail) and an ultrasonic sonicator. After centrifugation, the soluble fraction was dialyzed in a dialysis membrane submerged in 10 mM sodium phosphate buffer, pH 7.0; the sample was lyophilized and stored at −20 °C. Before the assay, the sample was resuspended in 1 mL of sodium phosphate buffer (10 mM, pH 7.0), and the total protein was quantified by the Bradford method.
The urease activity was determined by the indophenol method. In a 96-well microplate, 10 μL of 100 mM urea was added to 45 μL of total protein and 45 μL of BSU1-BSU11 (concentrations of 0.06–1000 μg/L) in phosphate buffer. The reaction was maintained for 10 min under shaking at 600 rpm, at room temperature. Then, 45 μL of solution A (1% phenol; 0.005% sodium nitroprusside) and 70 μL of solution B (0.5% sodium hydroxide; 0.1% sodium hypochlorite) were immediately added to the wells in the dark and incubated for 5 min at 50 °C under shaking at 600 rpm. Urease activity was quantified by measuring absorbance at 670 nm. The inhibitory concentration capable of inhibiting 50% of urease activity (ureIC50) was determined by nonlinear regression calculation using the GraphPad Prism 5.0 software.

[3] = molecular target: T2, yeast urease activity (Cryptococcus neoformans, UniProt O13465); experiment: Inhibition of yeast urease activity in urea (Christensen) medium, colour change (MICure); type: cell-based
T2 construct: endogenous in cells; host or cells: Cryptococcus neoformans H99 (ATCC 208821) yeasts in Christensen urea broth
T2 sequence (O13465 whole entry): as above
Protocol: The inhibitory activity against yeast urease was assessed using Christensen’s medium, which contains urea to induce URE1 gene expression. […] Even in the presence of fungal growth, inhibition of urease activity was evidenced by the absence of medium color change, indicating suppressed ammonia production.
(§1) C. neoformans H99 (or ATCC 208821), a standard strain, was used to evaluate the antifungal activity of BSU1-BSU11 and BTU1-BTU11 compounds using the broth microdilution method. The assay was performed in two different culture media: the standard medium RPMI 1640 buffered with […] (RMPI), and the Christensen broth (urea medium: 1 g/L peptone, 1 g/L dextrose, 5 g/L sodium chloride, 2 g/L potassium phosphate, 20 g/L urea, 12 mg/L phenol red, pH 7.0). The compounds were dissolved in dimethyl sulfoxide (DMSO) and diluted in both media, obtaining final concentrations from 0.03 to 128 mg/L in a 96-well plate and final DMSO concentration below 0.5%, considered nontoxic. For assay, yeasts were distributed in each well to obtain a final inoculum of 0.5–2.5 × 10^3 CFU/mL, and the plate was incubated at 35 °C for 48 h.
(§2) The MIC values were determined in both media and were defined as the lowest concentrations of BSU1-BSU11 and BTU1-BTU11 that inhibited 50% of fungal growth visually compared with untreated yeasts (growth control). In addition, the urease activity was indicated by medium color change from orange to pink due to ammonia production and the MICure was defined as the lowest concentration that inhibited the urease activity by visual inspection in urea medium with no color changes. For both assays, two controls were included: untreated yeast group for observation of fungal growth pattern or intracellular urease activity, and wells containing only medium for assay sterility control.

[4] = system: C. neoformans H99; experiment: Broth microdilution antifungal assay (MIC) in RPMI or urea medium; type: cell-based; details: Cryptococcus neoformans
Protocol: as §1, §2

[5] = system: C. neoformans; design: method as in PMID 36960287; details: against C. neoformans; cited from earlier work
[6] = BSU series, 100% inhibition of yeast urease activity in urea medium
[7] = Table S1, urea medium, 100% inhibition of yeast urease activity
[8] = H99, BSU series, after assay in RPMI medium, ≥99% reduction of viability
[9] = H99, Table S1, RPMI medium line
[10] = H99, Table S1, urea medium line
[11] = H99, 48 h, read-out: MIC RPMI, BSU series, 50% inhibition of fungal growth, RPMI medium, 35 °C, 48 h
[12] = H99, 48 h, read-out: MIC urea, BSU series, 50% inhibition of fungal growth, urea medium, 35 °C, 48 h
[13] = H99, Table S1, RPMI medium, C. neoformans H99
[14] = H99, Table S1, urea medium, C. neoformans H99

## O=C(NC(=[Se])Nc1ccccc1)c1ccccc1 [BSU1]
[1]; H99, BSU series, after assay in RPMI medium, ≥99% reduction of viability, read-out: MFC
  MFC: 2 µg/mL (≈ 6.6 µM)
[1]; H99, Table S1, RPMI medium line, read-out: MFC
  MFC: 2 µg/mL (≈ 6.6 µM)
[1]; H99, Table S1, urea medium line, read-out: MFC
  MFC: 0.12 µg/mL (≈ 0.396 µM)
[2]
  IC50: 4.88 nM
[3]; [6]
  MICURE: 0.06 mg/L
[3]; [7]
  MICURE: 0.06 mg/L
[4]; H99, 48 h, BSU series, 50% inhibition of fungal growth, RPMI medium, 35 °C, 48 h, read-out: MIC RPMI
  MIC: 2 µg/mL (≈ 6.6 µM)
[4]; H99, 48 h, BSU series, 50% inhibition of fungal growth, urea medium, 35 °C, 48 h, read-out: MIC urea
  MIC: 0.06 µg/mL (≈ 0.198 µM)
[4]; H99, Table S1, RPMI medium, C. neoformans H99, read-out: MIC
  MIC: 2 µg/mL (≈ 6.6 µM)
[4]; H99, Table S1, urea medium, C. neoformans H99, read-out: MIC
  MIC: 0.06 µg/mL (≈ 0.198 µM)

## Cc1ccc(NC(=[Se])NC(=O)c2ccccc2)cc1 [BSU2]
[1]; [8]
  MFC: 16 µg/mL (≈ 50.4 µM)
[1]; [9]
  MFC: 16 µg/mL (≈ 50.4 µM)
[1]; [10]
  MFC: 1 µg/mL (≈ 3.15 µM)
[2]
  IC50: 1.07 nM
[3]; [6]
  MICURE: 0.5 mg/L
[3]; [7]
  MICURE: 0.5 mg/L
[4]; [11]
  MIC: 16 µg/mL (≈ 50.4 µM)
[4]; [12]
  MIC: 0.5 µg/mL (≈ 1.58 µM)
[4]; [13]
  MIC: 16 µg/mL (≈ 50.4 µM)
[4]; [14]
  MIC: 0.5 µg/mL (≈ 1.58 µM)

## O=C(NC(=[Se])Nc1ccc(Br)cc1)c1ccccc1 [BSU8]
[1]; [8]
  MFC: > 128 µg/mL
[1]; [9]
  MFC: 8 µg/mL (≈ 20.9 µM)
[1]; [10]
  MFC: 0.5 µg/mL (≈ 1.31 µM)
[2]
  IC50: 4.04 nM and 4.03 nM
[3]; [6]
  MICURE: 8 mg/L
[3]; [7]
  MICURE: 0.5 mg/L
[4]; [11]
  MIC: 128 µg/mL (≈ 335 µM)
[4]; [12]
  MIC: 8 µg/mL (≈ 20.9 µM)
[4]; [13]
  MIC: 8 µg/mL (≈ 20.9 µM)
[4]; [14]
  MIC: 0.5 µg/mL (≈ 1.31 µM)

## COc1ccccc1NC(=[Se])NC(=O)c1ccccc1 [BSU4]
[1]; [8]
  MFC: 8 µg/mL (≈ 24 µM)
[1]; [9]
  MFC: 16 µg/mL (≈ 48 µM)
[1]; [10]
  MFC: 0.5 µg/mL (≈ 1.5 µM)
[2]
  IC50: 2.33 nM and 2.34 nM
[3]; [6]
  MICURE: 0.5 mg/L
[3]; [7]
  MICURE: 0.25 mg/L
[4]; [11]
  MIC: 8 µg/mL (≈ 24 µM)
[4]; [12]
  MIC: 0.5 µg/mL (≈ 1.5 µM)
[4]; [13]
  MIC: 16 µg/mL (≈ 48 µM)
[4]; [14]
  MIC: 0.5 µg/mL (≈ 1.5 µM)

## O=C(NC(=[Se])Nc1cccc(Br)c1)c1ccccc1 [BSU9]
[1]; [8]
  MFC: 4 µg/mL (≈ 10.5 µM)
[1]; [9]
  MFC: 1 µg/mL (≈ 2.62 µM)
[1]; [10]
  MFC: 0.5 µg/mL (≈ 1.31 µM)
[2]
  IC50: 2.31 nM and 2.3 nM
[3]; [6]
  MICURE: 0.06 mg/L
[3]; [7]
  MICURE: 0.12 mg/L
[4]; [11]
  MIC: 4 µg/mL (≈ 10.5 µM)
[4]; [12]
  MIC: 0.12 µg/mL (≈ 0.314 µM)
[4]; [13]
  MIC: 1 µg/mL (≈ 2.62 µM)
[4]; [14]
  MIC: 0.12 µg/mL (≈ 0.314 µM)

## O=C(NC(=[Se])Nc1cccc([N+](=O)[O-])c1)c1ccccc1 [BSU11]
[1]; [8]
  MFC: 64 µg/mL (≈ 184 µM)
[1]; [9]
  MFC: > 16 µg/mL
[1]; [10]
  MFC: 1 µg/mL (≈ 2.87 µM)
[2]
  IC50: 7.91 nM and 7.93 nM
[3]; [6]
  MICURE: 1 mg/L
[3]; [7]
  MICURE: 1 mg/L
[4]; [11]
  MIC: 32 µg/mL (≈ 91.9 µM)
[4]; [12]
  MIC: 1 µg/mL (≈ 2.87 µM)
[4]; [13]
  MIC: 16 µg/mL (≈ 45.9 µM)
[4]; [14]
  MIC: 1 µg/mL (≈ 2.87 µM)

## O=C(NC(=[Se])Nc1ccccc1[N+](=O)[O-])c1ccccc1 [BSU10]
[1]; [8]
  MFC: 16 µg/mL (≈ 45.9 µM)
[1]; [9]
  MFC: 16 µg/mL (≈ 45.9 µM)
[1]; [10]
  MFC: 2 µg/mL (≈ 5.74 µM)
[2]
  IC50: 8.68 nM and 8.67 nM
[3]; [6]
  MICURE: 1 mg/L
[3]; [7]
  MICURE: 1 mg/L
[4]; [11]
  MIC: 8 µg/mL (≈ 23 µM)
[4]; [12]
  MIC: 1 µg/mL (≈ 2.87 µM)
[4]; [13]
  MIC: 8 µg/mL (≈ 23 µM)
[4]; [14]
  MIC: 1 µg/mL (≈ 2.87 µM)

## CCCCNC(=S)NC(=O)c1ccccc1 [Compound 4, N-(butylcarbamothioyl)benzamide]
[5]
  MIC: 31.25 to 62.5 µg/mL

## O=C(NC(=[Se])Nc1ccc(Cl)cc1)c1ccccc1 [BSU6]
[1]; [8]
  MFC: 16 µg/mL (≈ 47.4 µM)
[1]; [9]
  MFC: > 16 µg/mL
[1]; [10]
  MFC: 16 µg/mL (≈ 47.4 µM)
[2]
  IC50: 3.02 nM
[3]; [6]
  MICURE: 0.25 mg/L
[3]; [7]
  MICURE: 8 mg/L
[4]; [11]
  MIC: 16 µg/mL (≈ 47.4 µM)
[4]; [12]
  MIC: 0.5 µg/mL (≈ 1.48 µM)
[4]; [13]
  MIC: > 16 µg/mL
[4]; [14]
  MIC: 8 µg/mL (≈ 23.7 µM)
